Entries after “also recorded” stand apart in the source; their conditions may differ. Where two headings read alike, the source gives them in different places.
Columns and labels:
[1] = in vivo
Description: (§1) A. The radiopharmaceutical was sprayed deep into the nose through the nostril as the examinee laid on the scintigraphic table with the head placed in vertical position. B. The resultant radioactivity residing on the olfactory mucosa. C. The region of interest (ROI) placed just beneath the nose-brain barrier on the (cathode Ray Tube) so as to record the penetrating radioactivity. D. Pharyngeal radioactivity escaped from the olfactory pit.
(§2) The mixture was sprayed into the depth of the nose. […] In order to protect the nasal mucosa, vinyl tubing was attached to the end of the nozzle of a sprayer. As the head of an examinee was positioned vertically, so as to allow the droplets to fall onto the olfactory mucosa, the examiner sprayed the mixture deep into one of the nostrils; and
(§3) (2) Assessing the radioisotopic penetration across the NBB The radioisotopic spray side of the head of an examinee was placed against the detector collimator of a gamma camera for 10 minutes. Radioisotopic penetration was defined as the amount of radioactivity recorded in the regions of interest (ROIs) placed over the intracranial space adjoing the cribrijon lamine. The change of the recorded radioactivity in this ROI was analyzed along with that in a remote control brain area.
(§4) Test were performed to determine the penetration potential of radio-pharmaceuticals of ^99m Tc-HMPAO and ^99m Tc-DTPA.

[2] = agent that circulates in the blood; cited from earlier work
[3] = cited from earlier work
[4] = renogrammatic analysis; imaging and dynamic studies of cerebrospinal fluid flow; cited from earlier work
[5] = Radioisotopic penetration across the nose-brain barrier (NBB) after intranasal spray, gamma camera ROI
Description: as §1, §2, §3, §4

C/C(=N\[O-])[C@@H](C)[N-]CC(C)(C)C[N-][C@H](C)/C(C)=N/O.[O]=[99Tc+3] (racemic) [^99m Tc-HMPAO]
passage of the nose-brain barrier [1]: shown not to pass the nose-brain barrier
passage through the blood-brain barrier [2]: passes through the blood-brain barrier

O=C([O-])CN(CCN(CC(=O)[O-])CC(=O)[O-])CCN(CC(=O)[O-])CC(=O)[O-].[99Tc+4] [^99m Tc-DTPA, 99mTc-diethylenetriaminepenta-acetic acid]
water solubility [3]: water-soluble
extracellular spreading [4]: spreads extracellularly
radioisotopic penetration across the NBB (radioactivity in juxta-cribriform brain ROI) ([5]; healthy person, intranasal spray, 10 minutes gamma camera): the change was statistically insignificant; also recorded: increased but without any statistical significance
passage of the nose-brain barrier ([5]; overall conclusion, human beings, olfactory pathology and/or healthy control): shown to pass the nose-brain barrier
time after which radioactivity in the juxta-cribriform brain increased significantly ([5]; person with anosmia, left nostril): 5 min
radioisotopic penetration across the NBB (radioactivity in juxta-cribriform brain ROI) ([5]; person with anosmia, left nostril, 148 MBq per 0.2 ml puff (example preparation)): significant increase in radioactivity in the juxta-cribriform lamional brain; also recorded: increased significantly

— patent US6171575A, “Method of radioisotopic assessment of the integrity and function of the nose-brain barrier” (priority 1998, dated 2001)
